The IC50 is the midpoint of a concentration-inhibition curve.

Each structure is given as a SMILES string. Residues, ends and D or L forms follow the SMILES beside them. *: point of attachment. Cbz = O=C(OCc1ccccc1)*

Data set [1] in a line: MTT cytotoxicity assay, IMR90. Particulars: human, IMR90, 0.01 - 40 μM, 72 h. The class given is cell-based. Background: Tetrazolium assays rely on reduction of a dye to a coloured formazan, in cell work by metabolically active cells.
Experimental: LNCaP-S14 (10,000 cells), PC3, DU145 or IMR90 cells (5000 cells) were seeded in 96-well plates and treated with increasing concentrations of the respective SMIPs for 72 h. Cell viability was assessed using the MTT cell proliferation assay (ATCC®, Middlesex, UK) according to the manufacturer's protocol. IC50 was calculated using the BioDataFit 1.02 software http://www.changbioscience.com/stat/ec50.html.
Data set [2] deals with p27 protein levels in LNCaP-S14 cells. The data set is described as follows: Immunoblot quantification of p27, LNCaP-S14. The class given is cell-based, human. The conditions noted are these: LNCaP-S14, 24 h; SMIPs 40 μM, MG132 20 μM, bortezomib 100 nM. The method, then:
(§1) Total cell lysate from cells treated with vehicle (DMSO) or compounds were obtained by incubating cells in lysis buffer (25 mM Tris-HCl pH 7.4, 150 mM NaCl, 0.5% Triton X-100, protease inhibitors) for 15 min at 4°C. The supernatant was collected by centrifugation and the amount of protein was determined with a Bio-Rad protein assay (Bio-Rad) using BSA as standard. Equal amounts of protein were subjected to SDS-PAGE (4%-20% gels, Invitrogen) and transferred to PVDF membranes. The membranes were blocked with TBST (50 mM Tris-HCl pH 7.5, 150 mM NaCl, 0.05% Tween-20) containing 5% non-fat dry milk or bovine serum albumin (BSA) for 1 h at room temperature, followed by incubation in primary antibodies 4°C overnight. Membranes were washed and incubated with secondary antibodies conjugated to HRP (Jackson ImmunoResearch Laboratories) for 1 h at room temperature. Signals were visualized using the ECL Western Blotting Substrate (Pierce Biotechnology, IL, USA) according to the manufacturer's instructions. Membranes were stripped using Restore™ Western Blot Stripping Buffer (Pierce Biotechnology). Films were scanned and quantification of the bands was performed using Image J software http://rsbweb.nih.gov/ij/.
A general note: In western blotting, separated proteins are transferred to a membrane and probed.

Data set [3] relates to p27 protein levels in LNCaP cells. The data set is described as follows: Immunoblot quantification of p27, LNCaP. The class given is cell-based, human. The conditions noted are these: LNCaP, 24 h; SMIPs 40 μM, MG132 20 μM, bortezomib 100 nM. Here is the method: as §1
Data set [4] relates to p21 protein levels in LNCaP cells. Kind of data set: Immunoblot quantification of p21, LNCaP. Particulars: LNCaP, 24 h; SMIPs 40 μM, MG132 20 μM. It is filed as cell-based, human. The method, then: as §1
Data set [5] relates to p27 protein levels in PC3 cells. Kind of data set: Immunoblot quantification of p27, PC3. Particulars: PC3, 24 h; SMIPs 40 μM, MG132 20 μM, bortezomib 100 nM. It is filed as cell-based, human. The method, then:
as §1

Data set [6] relates to p21 protein levels in PC3 cells. The data set is described as follows: Immunoblot quantification of p21, PC3. The class given is cell-based, human. The conditions noted are these: PC3, 24 h; SMIPs 40 μM, MG132 20 μM, bortezomib 100 nM. Here is the method:
as §1

For data set [7], the system named is p27 protein levels in DU145 cells. The data set is described as follows: Immunoblot quantification of p27, DU145. The conditions noted are these: DU145, 24 h; SMIPs 40 μM, MG132 20 μM, bortezomib 100 nM. It is filed as cell-based, human. The method, then:
as §1

Data set [8] deals with p21 protein levels in DU145 cells. The data set is described as follows: Immunoblot quantification of p21, DU145. It is filed as cell-based, human. Particulars: DU145, 24 h; SMIPs 40 μM, MG132 20 μM, bortezomib 100 nM. Here is the method: as §1
Data set [9] relates to p27 protein levels in HeLa cells. Kind of data set: Immunoblot quantification of p27, HeLa. Particulars: HeLa, 24 h; SMIPs 40 μM, MG132 20 μM, bortezomib 100 nM. The class given is cell-based, human. The method, then: as §1
Data set [10] relates to p21 protein levels in HeLa cells. Kind of data set: Immunoblot quantification of p21, HeLa. It is filed as cell-based, human. Particulars: HeLa, 24 h; SMIPs 40 μM, MG132 20 μM, bortezomib 100 nM. The method, then:
as §1

The test system of data set [11] is p27 protein levels in IMR90 cells. The data set is described as follows: Immunoblot quantification of p27, IMR90. It is filed as cell-based, human. The conditions noted are these: IMR90, 24 h; SMIPs 40 μM, MG132 20 μM, bortezomib 100 nM. Here is the method:
as §1

In data set [12] the test system is polyubiquitylated proteins in LNCaP-S14 cells. The data set is described as follows: Anti-ubiquitin immunoblot of total lysate. Particulars: LNCaP-S14, SMIPs 20 and 40 μM, MG132 20 μM, bortezomib 100 nM, 24 h. The class given is cell-based, human. Here is the method: as §1
The subject of another data set is LNCaP-S14 cells. Kind of data set: MTT cytotoxicity assay, LNCaP-S14. Particulars: Homo sapiens, 72 h, read-out: IC50 (MTT cytotoxicity).
For data set [13], the system named is nuclear p27 in LNCaP-S14 cells. The class given is cell-based, human. The conditions noted are these: primary screening.
For data set [14], the target named is PDGF receptor tyrosine kinase. The conditions noted are these: vendor annotation of library compound (Biomol EI-215); cited from earlier work.

`CC(C)C[C@@H](C=O)NC(=O)[C@H](CC(C)C)NC(=O)[C@H](CC(C)C)NC(=O)OCc1ccccc1` [MG132, reference compound] (Cbz-Leu-Leu-Leu-aldehyde): the IC50 was determined as 445 nM in data set [1] and 379 nM in the data set with LNCaP-S14 cells. The “p27 protein level (immunoblot, DMSO = 1.0)” value was 1.5 in [2]; 1.9 ± 0.1 in data set [3]; 2.0 ± 1.0 in data set [5]; 2.4 ± 0.1 in data set [7]; 2.2 ± 0.9 in data set [9]; 0.9 ± 0.5 in data set [11]. The “p21 protein level (immunoblot, DMSO = 1.0)” value in data set [4] amounted to 2.9; in data set [6], 4.1 ± 0.4; in data set [8], 3.1; in [10], 5.9 ± 1.7. For the same compound, the “accumulation of polyubiquitylated proteins” value in data set [12] is “readily seen”.

In the case of `CC(C)(C)c1cc(C=C(C#N)C#N)cc(C(C)(C)C)c1O` [1362L21], the “Z score (aver)” value in data set [13] (nuclear p27 in LNCaP-S14 cells) was determined as 6.21. For the same compound, the Clasf entry in [13] (S = strong, M = medium, W = weak by Z score) is “S (strong (Z score > 5))”. Further, the IC50 in data set [14] is 1200 nM.

Source of the values: paper PMC3025922 (BMC Biology, 2010).
